Measured values reported in patent US20170275287A1, “NOVEL N2, N4, N7, 6-TETRASUBSTITUTED PTERIDINE-2,4,7-TRIAMINE AND 2, 4, 6, 7-TETRASUBSTITUTED PTERIDINE COMPOUNDS AND METHODS OF SYNTHESIS AND USE THEREOF” (Janus Biotherapeutics, Inc., priority 2014, published 2017).

What was measured:
TLR9 = target: T1, TLR9 (Mus musculus, UniProt Q9EQU3); assay: In vivo TLR9 knockdown (CpG-DNA challenge, serum cytokines); design: species or system mice
T1 construct: endogenous in cells
T1 sequence (Q9EQU3 26-1032): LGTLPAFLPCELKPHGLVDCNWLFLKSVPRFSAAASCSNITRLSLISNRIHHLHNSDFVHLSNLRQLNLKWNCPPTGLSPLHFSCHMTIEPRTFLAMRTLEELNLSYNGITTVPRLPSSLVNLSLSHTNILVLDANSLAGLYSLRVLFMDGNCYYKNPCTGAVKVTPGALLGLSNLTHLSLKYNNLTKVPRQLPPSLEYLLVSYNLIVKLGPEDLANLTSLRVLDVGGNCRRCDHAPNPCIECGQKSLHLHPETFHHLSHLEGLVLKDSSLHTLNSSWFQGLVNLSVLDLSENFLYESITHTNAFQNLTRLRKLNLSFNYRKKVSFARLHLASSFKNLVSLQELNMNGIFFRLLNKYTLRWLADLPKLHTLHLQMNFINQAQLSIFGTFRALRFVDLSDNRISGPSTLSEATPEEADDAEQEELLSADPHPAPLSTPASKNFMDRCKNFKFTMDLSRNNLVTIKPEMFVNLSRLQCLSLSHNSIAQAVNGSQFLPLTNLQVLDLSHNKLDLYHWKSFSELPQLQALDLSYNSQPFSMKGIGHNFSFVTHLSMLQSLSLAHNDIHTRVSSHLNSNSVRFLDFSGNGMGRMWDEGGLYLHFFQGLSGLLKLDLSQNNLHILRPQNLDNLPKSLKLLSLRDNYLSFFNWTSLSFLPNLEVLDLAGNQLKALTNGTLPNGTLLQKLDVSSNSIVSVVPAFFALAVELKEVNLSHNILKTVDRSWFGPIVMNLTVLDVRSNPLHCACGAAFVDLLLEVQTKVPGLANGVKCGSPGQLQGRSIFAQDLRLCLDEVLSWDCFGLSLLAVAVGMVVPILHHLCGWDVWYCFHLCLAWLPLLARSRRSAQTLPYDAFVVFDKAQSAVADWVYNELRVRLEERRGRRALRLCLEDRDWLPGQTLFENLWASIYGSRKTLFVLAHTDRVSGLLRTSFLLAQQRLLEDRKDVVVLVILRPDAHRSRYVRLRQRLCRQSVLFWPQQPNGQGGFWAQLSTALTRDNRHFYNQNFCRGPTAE
Method: Mice were treated with test antagonist at varying doses at T=0 hr. Agonist treatment (CpG-DNA) dosed one hour later, T=1 hr for IP groups and two hours later, T=2 hr for PO groups. Necropsy performed 3 hours post agonist treatment, T=4 hr (IP groups) or T=5 hr (PO groups). Serum cytokines induced by the TLR agonist are measured by ELISA. Groups size per dose, n=3. The mean+/−SD of two independent ELISA's at differing serum dilutions is plotted.

[1] = Protein binding, human plasma (CEREP); format: in vitro ADME; settings: read-out: Protein Binding, Human Plasma, % bound (converted)
Method: Preliminary screening measures were conducted by CEREP. All values fall within acceptable limits (Table 5). Solubility assays where performed by CEREP, Seattle, Wash., according to Lipinski, C. A. et al., 1997, Adv. Drug Del. Rev., 46:3-26. Protein binding assays where performed by CEREP, Seattle, Wash., according to Banker, M. J. et al., 2003, J. Pharm. Sci., 92:967-974. Permeability assays where performed by CEREP, Seattle, Wash. according to Hildalgo, I. J., 1998, Gastroenterology, 96:736-749. Metabolic stability assays where performed by CEREP, Seattle, Wash., according to Obach, R. S. et al., 1997, J. Pharmacol. Exp. Ther., 283:46-58. P-glycoprotein inhibition assays where performed by CEREP, Seattle, Wash., according to Polli, J. W. et al., 2001, J. Pharm. Exp. Ther., 299:620-628. Cell viability assays where performed by CEREP, Seattle, Wash., according to Mosmann, T., 1983, J. Immunol. Met. 65:55-62. hERG automated patch clamp assays where performed by CEREP, Seattle, Wash., according to Mathes, C., 2006, Expert Opin. Ther. Targets, 10:230-241.

CN1CCN(c2nc(NCCN3CCOCC3)c3nc(Cl)c(NCCN4CCOCC4)nc3n2)CC1 [JB6121, 6-chloro-2-(4-methylpiperazin-1-yl)-N^4,N^7-bis(2-morpholinoethyl)pteridine-4,7-diamine]
ID50, TLR9 knockdown, IP injection (TLR9; mice, IP, CpG-DNA 1 h later): 55.27 μg injection dose
ID50, TLR9 knockdown, PO gavage (TLR9; mice, PO, CpG-DNA 2 h later): 59.99 μg delivery dose
ED50 (TLR9; mouse, translated for a 25 gram mouse, read-out: ID50, TLR9 knockdown): ~2.4 mg/kg
fraction unbound [1]: 0.13
